Test results published in ChEMBL document CHEMBL1914382, “Fragment based discovery of a novel and selective PI3 kinase inhibitor” (Bioorg Med Chem Lett, 2011).

How the values were obtained:
[1] = Metabolic stability in human liver microsomes; format: ADME, Microsome; details: read-out: Stability
[2] = Metabolic stability in rat liver microsomes; format: ADME, Microsome; details: read-out: Stability
[3] = Permeability of the compound by PAMPA; format: ADME; details: read-out: permeability

microsomal CLint [1]: 10 µL/min/mg
microsomal CLint [2]: 15 µL/min/mg
Papp [3]: 13.6 ×10⁻⁶ cm/s
Structure (SMILES): CC(=O)Nc1cn2cc(/C=C3\SC(=O)NC3=O)ccc2n1
